Experiment: molar heat capacity at constant pressure; xn = mol fraction of the nth substance listed
Settings: Liquid, Large sample (1 g) DSC

CCCCCCn1cc[n+](C)c1.F[B-](F)(F)F [1-hexyl-3-methylimidazolium tetrafluoroborate] + CC#N
molar heat capacity at constant pressure [J/K/mol]
Settings | 283.15 K | 288.15 K | 293.15 K | 298.15 K | 303.15 K | 308.15 K | 313.15 K | 318.15 K | 323.15 K
x1 = 0.0648 | 110.9 | 111.2 | 111.6 | 112.1 | 112.5 | 113 | 113.5 | 114 | 114.6
x1 = 0.1342 | 133.5 | 134 | 134.5 | 135 | 135.6 | 136.2 | 136.8 | 137.4 | 138.1
x1 = 0.2127 | 159.4 | 160 | 160.7 | 161.4 | 162.1 | 162.9 | 163.7 | 164.5 | 165.3
x1 = 0.2732 | 179.6 | 180.3 | 181.1 | 181.8 | 182.7 | 183.6 | 184.5 | 185.5 | 186.6
x1 = 0.3828 | 216.5 | 217.5 | 218.5 | 219.6 | 220.7 | 221.8 | 223 | 224.2 | 225.5
x1 = 0.5367 | 268.5 | 269.8 | 271.2 | 272.6 | 274 | 275.6 | 277.2 | 278.8 | 280.5
x1 = 0.7064 | 326.1 | 327.7 | 329.4 | 331.2 | 333.1 | 335.1 | 337.1 | 339.2 | 341.4
x1 = 0.8344 | 369.2 | 371.2 | 373.2 | 375.3 | 377.4 | 379.7 | 382 | 384.5 | 387
x1 = 1 | 425 | 427.2 | 429.6 | 432 | 434.6 | 437.2 | 440 | 442.9 | 445.8
